Results: patent publication US20060018827A1, “Positron therapy of inflammation, infection and disease” (priority 2004, published 2006)

Key:
Assay type in all cases: in vivo, mouse
BALB/c mice = test: Radiotoxicity studies of ^18F-FDG in healthy mice; settings: doses of up to 5 mCi i.p., 1 month
Procedure: Radiotoxicity studies of ^18F-FDG in healthy mice. After a 4-hour fast, […] of BALB/c mice were treated i.p. with the following doses of ^18F-FDG: group 1 (three mice), 2.5 mCi; group 2 (three mice), 5 mCi; group 3 (three mice), left untreated for control. The mice were monitored for changes in behavior and body weight for 1 month, after which they were killed. Their heart, brain, liver, kidneys, bladder, and bone marrow were removed, fixed in buffered formalin, sectioned, stained with hematoxylin and eosin (H&E), and analyzed histologically.

[1] = tested on: mammary tumors in PyMT mice; test: Treatment of PyMT mice with ^18F-FDG (toleration, apoptosis and necrosis detection)
Procedure: (§1) Animals. All procedures involving mice were conducted in accordance with the National Institutes of Health regulations concerning the use and care of experimental animals. The study of mice was approved by the Albert Einstein College of Medicine (AECOM) Animal Use Committee. Transgenic mice expressing the polyoma middle T antigen (PyMT) in the mammary epithelium under the control of mouse mammary tumor virus (MMTV) long terminal repeat were provided by Dr. W. J. Muller (McMaster University, Ontario, Canada) and then bred at AECOM. At the age of 10 weeks these mice have multiple mammary tumors 0.15-0.17 cm in diameter. In mice older than 18 weeks the tumors are more than 1 cm in diameter. MMTV-NeuT mice (Muller et al. 1988), which carry erbB-2 (Neu), one of the better known human breast cancer oncogenes, were purchased from Jackson Laboratories. MMTV-NeuT mice were obtained as retired breeders and some of them developed mammary tumors at the age of 5 months, whereas others remained-tumor free until 6-7 months of age. C3H/B6 female mice lacking the PyMT transgene were used as healthy controls in therapy experiments. Notch tumor-bearing mice were produced by subcutaneously injecting six to eight week old female nude mice with 105 Notch cells on their right flank. One week after implantation the tumors reached 0.5-0.7 cm in diameter and therapy with FDG was initiated.
Treatment of PyMT mice with ^18F-FDG. After a 4-hour fast, three groups of mice were treated i.p. with the following doses of ^18F-FDG: group 1 (five 10-week-old mice), 2-4 mCi; group 2 (three 22-week-old mice), 2 mCi; group 3 (two C3H/B6 mice), 3 mCi to assess radiation damage to healthy breast tissue. Three 10-week-old and two 22-week-old PyMT mice served as untreated controls. At 10 days after treatment, mice were killed. In younger mice, the right abdominal mammary glands were removed for whole mount preparation as described (Gouon-Evans et al., 2000), then fixed in buffered formalin and sectioned. In older mice, the tumors were removed and processed as above. Some sections were stained with H&E; others were analyzed for the presence of apoptotic and necrotic cells.
Apoptosis and necrosis detection. The detection of apoptotic and necrotic cells in the tumors was performed with an Apoptag® Plus apoptosis detection kit (Serologicals) in accordance with the manufacturer's instructions. In brief, 3′-OH termini of DNA fragments, which are the hallmark of apoptosis, were labeled with digoxigenin-modified nucleotides by terminal deoxynucleotidyl transferase. This enzyme selectively detects apoptotic over necrotic cells. The labeled DNA was detected with an anti-digoxigenin antibody, and detection was performed with a chromagen: apoptotic cells were stained brown, and areas of necrosis were stained yellow.

xenografted Notch tumor = test: Treatment of Notch tumor-bearing mice with ^18F-FDG; settings: Notch tumor-bearing nude mice, 2.5 mCi i.p.
Procedure: Notch cell line. Mouse mammary gland cell line 5505 was derived from mammary tumors arising in transgenic mice which express an activated form of Notch 4 from the mouse mammary tumor virus long terminal repeat (MMTV-LTR) promoter/enhancer (Fitzgerald et al. 2000). This cell line is further referred to herein as Notch cells. The Notch cells were cultured in DMEM supplemented with 10% FCS, 10% NCTC-109, 1% non-essential amino acids, […] D-glucose and 1% penicillin-streptomycin.
as §1, with “Notch tumor-bearing mice were produced by subcutaneously injecting six to eight week old female nude mice with 105 Notch cells on their right flank. One week after implantation the tumors reached 0.5-0.7 cm in diameter and therapy with FDG was initiated.” left out
Treatment of Notch tumor-bearing mice with ^18F-FDG. […] Animals were monitored for their vital signs and survival for 1 month. Their tumors were measured every 3 days with calipers in three perpendicular planes and the product of the three measurements was multiplied by 0.5 and expressed in cm^3. The growth rate for tumors in cm^3/day was calculated using the formula: […]/number of days survived. […]

Question: For `O=C[C@H]([18F])[C@@H](O)[C@H](O)[C@H](O)CO` [^18F-FDG, ^18F-2-deoxy-2-fluoro-D-glucose], which “damage in major organs including bone marrow (histological examination)” value (BALB/c mice) is on record?
Answer: The value was “no damage in major organs”.

Question: And the “apoptotic cells in treated small tumors” value ([1]; 10-week-old PyMT mice, tumors 0.15-0.17 cm, 2-4 mCi i.p., 10 days after treatment)?
Answer: The value was 4±1%.

Question: What about the “necrotic areas, share of tumor volume” value ([1]; 22-week-old PyMT mice, tumors more than 1 cm, 2 mCi i.p., 10 days after treatment) of the same compound?
Answer: Its value is 14%.

Question: What about the “apoptosis or necrosis in healthy mammary glands” value ([1]; C3H/B6 mice, 3 mCi i.p.) of the same compound?
Answer: Its value is “No apoptosis or necrosis was detected”.

Question: And the “changes in eating and drinking habits, urine and fecal excretion, or body weight” value ([1]; PyMT mice, 2-4 mCi i.p., observed for 10 days)?
Answer: Its value is “No changes”.

Question: What about the “radioactivity detected in mice” value ([1]; PyMT mice, 24 hours after injection) of the same compound?
Answer: The value was “no radioactivity was detected”.

Question: And the “mean (95% CI) time to death” value (xenografted Notch tumor)?
Answer: Its value is 18 (13-23) days.

Question: What about the survival period (xenografted Notch tumor; longest survival) of the same compound?
Answer: The survival period was “up to 30 days”.

Question: What about the “median tumor growth rate” value (xenografted Notch tumor; therapy group) of the same compound?
Answer: Its value is 0.020 cm^3/day.
